Data: patent US20260356803A1, “Nicotinamide derivatives” (Board of Regents, The University of Texas System, priority 2024, published 2026)

Tests used:
iHCT116 cells = experiment: iHCT116 cell viability with or without ectopic NMNAT1 expression; type: cell-based
From the text: Second, we screened for resistance to 9 in iHCT116 cells, a system that uses inducible mutagenesis and forward genetics to find compound-resistant mutations and thus can reveal both loss of function and gain of function alleles that suppress activity. The iHCT116 system is a barcoded cell line in which we temporally control mutagenesis by the addition of indole acetic acid (IAA) mediated degradation of the mismatch repair protein MLH1.^12 MLN4924 is a small molecule toxin that we use as a positive control to verify that IAA treatment leads to increased mutations. By degrading MLH1 and increasing the overall mutation rate, IAA treatment increases the frequency of UBA3 mutations, leading to a higher rate of MLN4924 resistance. […] Having previously established a relationship between either NMNAT1 levels or NAMPT activity and compound resistance, we analyzed the levels of both enzymes in multiple resistant clones that harbored unique barcode sequences. […] To test whether reduced NMNAT1 levels in these clones contributed to resistance, we ectopically expressed NMNAT1 in either the parental cells or a representative resistant clone with low NMNAT1 expression.
(§1) In 96-well assay plates (Corning #2903), 2,000 cells were plated per well in 100 μL of medium and allowed to adhere overnight. The next day, compounds or Nam suspended in DMSO were dispensed to the assayed wells using a D300e Digital Dispenser (Tecan). All wells were normalized to 0.5% DMSO. 72 hours after incubation at 37 °C in 5% CO2, cell viability was assayed using an ATP-based luminescent viability assay, CellTiter-Glo (Promega #G8462). CellTiter-Glo substrate was mixed 1:1 with phosphate-buffered saline (PBS) supplemented with 1% Triton X-100, and 40 μL of this mixture was added to the assay wells. After the plates were shaken on a microplate shaker for 10 minutes at room temperature, luminescence was recorded using a Synergy 2 Microplate Reader or Cytation 5 plate reader (BioTek). In Prism 9 software (GraphPad), ten-point dose response curves were plotted with baseline-correction to the vehicle control well, and IC50 values were calculated by curve fitting using asymmetric (five parameter), least squares fit.

[1] = tested on: NAMPT activity in S462 cells; experiment: NMN levels in S462 cells (NAMPT activity in cells); type: cell-based, human; settings: regular DMEM, increasing concentrations of 9, compared with FK866
[2] = tested on: Cas9-expressing HCT116 cells; experiment: Genome-wide pooled CRISPR/Cas9 knockout screen in HCT116; type: cell-based, human
From the text: To gain insight into the mechanism of 9 and the relevance of Nam, we pursued two independent and complementary unbiased genetic approaches. First, we performed a genome-wide pooled Clustered Regularly Interspaced Short Palindromic Repeats (CRISPR) and CRISPR-associated protein 9 (Cas9) knockout screen to identify genes whose loss of function can enhance or suppress compound 9 activity. […] We cultured Cas9-expressing HCT116 cells in 10% FBS Nam-free DMEM and transduced with a lentiviral single guide RNA (sgRNA) library designed to silence 19,114 human genes.^11 These cells were treated with either vehicle (DMSO) or 9 for 30 days by which time the 9-treated cells had 7.6 fewer population doublings. Then, relative sgRNA sequences in the resulting cells were determined by massively parallel sequencing of PCR products amplified from genomic DNA, and the relative impact of each gene was derived from the sgRNA reads.
(§2) These observations, taken together, support the hypothesis that the activity of compound 9 depends on NAMPT and NMNAT1.

[3] = Co-treatment of 9 with sublethal FK866; type: cell-based
Method: as §2, §1

[4] = Levels of 9 in media and cells over time; type: cell-based
From the text: Given that compound 21 (1) and 9 both resemble and are rescued by Nam, and the fact that the NAD salvage pathway is essential for toxicity, we considered that these two compounds may themselves be substrates in the NAD salvage pathway. In this model, we would predict that the compounds would be metabolized in cells, and that excess Nam acting as a competitive substrate would block that metabolism. To test this hypothesis, we measured the total amount of 9 in media and cells over time with or without Nam supplementation.
Prior to the experiment, cells were cultured in low-Nam DMEM for at least 1 passage (3 days) to deplete intracellular Nam. 15,000 cells were plated in a 96-well plate with 100 μL low-Nam media. At appropriate time points, 500 nM 1 or 9, or equal volume of vehicle (DMSO) were added using TECAN. 200 μL of acetonitrile with 0.1% formic acid were added to the assayed wells. […] The supernatants were filtered through 0.2 μm PVDF filters and analyzed by LC-MS/TOF.
Initial evaluation of the stability of 9 in the presence and absence of exogenous Nam was performed using LC-MS/MS analysis with a Sciex TripleQuad™ 4500 (AB SCIEX, Framingham, MA, USA) coupled to a Shimadzu (Columbia, MD) Prominence LC. The compound was detected in positive MRM mode following the transition 204.9 to 79.0. […]

decrease in levels of 9 with Nam ([4]; 100 μM Nam, 24 hours): no appreciable decrease
half-life at 0.5 µM ([4]; cells in nam-free dmem, 10% FBS Nam-free DMEM): ~3.8 h
Compound: O=C(Nc1cccs1)c1cccnc1 [Compound 9, N-(Thiophen-2-yl)nicotinamide]
decrease in IC50 on ectopic NMNAT1 expression (iHCT116 cells; parental iHCT116): 1.85 fold
IC50 (iHCT116 cells; parental iHCT116, NMNAT1-expression): 26.9 nM
IC50 (iHCT116 cells; parental iHCT116, mock-infected): 49.7 nM
IC50 (iHCT116 cells; representative resistant clone with low NMNAT1 expression): 574 nM
decrease in IC50 on ectopic NMNAT1 expression (iHCT116 cells; resistant clone): 9.58 fold
IC50 (iHCT116 cells; resistant clone with ectopic NMNAT1 expression): 59.9 nM
NMN levels in S462 cells [1]: did not reduce the levels of NMN to the same extent as FK866
enrichment of sgRNA reads for NAMPT ([2]; 9-treated cells, 30 days): 2.1 fold
increase in sgRNA reads targeting NMNAT1 ([2]; 9-treated cells, 30 days): 5.2 fold
fewer population doublings ([2]; 9-treated versus vehicle, 30 days): 7.6 population doublings
rank of NAMPT among enriched genes ([2]; out of 19,114 genes): 101
increase in IC50 of 9 with FK866 ([3]; addition of 278 pM FK866): 2.9 fold
increase in IC50 of 9 with FK866 ([3]; addition of 833 pM FK866): 15.4 fold
